According to PMC5218480 (PLoS ONE, 2017):

System: MV-4-11 cells
Experiment: Gene expression microarray analysis (Affymetrix PrimeView) and GSEA
Assay type: cell-based, human
Set-up: RFU PODN (11730768_x_at) / Fold change /veh PODN (11730768_x_at) / RFU LINC00158 (11744669_a_at) / Fold change /veh LINC00158 (11744669_a_at) / RFU DUSP10 (11751237_a_at) / Fold change /veh DUSP10 (11751237_a_at) / RFU ID3 (11757404_x_at) / Fold change /veh ID3 (11757404_x_at) / RFU PLEKHG5 (11737974_s_at) / Fold change /veh PLEKHG5 (11737974_s_at) / RFU LRRC4B (11730491_at) / Fold change /veh LRRC4B (11730491_at) / RFU GIMAP4 (11747438_a_at) / Fold change /veh GIMAP4 (11747438_a_at) / RFU KRT8 (11758183_x_at) / Fold change /veh KRT8 (11758183_x_at) / RFU CNN1 (11734310_a_at) / Fold change /veh CNN1 (11734310_a_at) / RFU VPS37D (11726825_at) / Fold change /veh VPS37D (11726825_at) / RFU C10orf10 (11716522_x_at) / Fold change /veh C10orf10 (11716522_x_at) / RFU KIR2DL2 /// KIR2DL4 /// KIR2DL5A /// KIR2DL5B /// KIR2DS1 /// KIR2DS2 /// KIR2DS3 /// KIR2DS4 /// KIR3DL3 /// KIR3DL3 /// KIR3DS1 (11738374_at) / Fold change /veh KIR2DL2 /// KIR2DL4 /// KIR2DL5A /// KIR2DL5B /// KIR2DS1 /// KIR2DS2 /// KIR2DS3 /// KIR2DS4 /// KIR3DL3 /// KIR3DL3 /// KIR3DS1 (11738374_at) / RFU C1QL1 (11718748_at) / Fold change /veh C1QL1 (11718748_at) / RFU TMPRSS4 (11747572_a_at) / Fold change /veh TMPRSS4 (11747572_a_at) / RFU HAMP (11756126_x_at) / Fold change /veh HAMP (11756126_x_at) / RFU RNFT2 (11725882_a_at) / Fold change /veh RNFT2 (11725882_a_at) / RFU NR4A2 (11747474_a_at) / Fold change /veh NR4A2 (11747474_a_at) / RFU ABCC12 (11746883_a_at) / Fold change /veh ABCC12 (11746883_a_at) / RFU TMEM136 (11760407_x_at) / Fold change /veh TMEM136 (11760407_x_at) / RFU CLDN22 /// WWC2 (11732394_at) / Fold change /veh CLDN22 /// WWC2 (11732394_at) / RFU HLA-DPB1 (11760878_x_at) / Fold change /veh HLA-DPB1 (11760878_x_at) / RFU SPINT1 (11716480_a_at) / Fold change /veh SPINT1 (11716480_a_at) / RFU GAP43 (11754022_s_at) / Fold change /veh GAP43 (11754022_s_at) / RFU A4GNT (11735810_at) / Fold change /veh A4GNT (11735810_at) / RFU PRB3 (11715151_x_at) / Fold change /veh PRB3 (11715151_x_at) / RFU TUBB4B (11761932_at) / Fold change /veh TUBB4B (11761932_at) / RFU CAPN14 (11732068_a_at) / Fold change /veh CAPN14 (11732068_a_at) / RFU TMCC2 (11721928_a_at) / Fold change /veh TMCC2 (11721928_a_at) / RFU IRGQ (11745062_a_at) / Fold change /veh IRGQ (11745062_a_at) / RFU FAM174B (11720279_a_at) / Fold change /veh FAM174B (11720279_a_at) / RFU TMPRSS4 (11748680_a_at) / Fold change /veh TMPRSS4 (11748680_a_at) / RFU FAM212B (11763350_a_at) / Fold change /veh FAM212B (11763350_a_at) / RFU PLEKHG5 (11743358_a_at) / Fold change /veh PLEKHG5 (11743358_a_at) / RFU ZSCAN30 (11745921_a_at) / Fold change /veh ZSCAN30 (11745921_a_at) / RFU CMKLR1 (11741424_a_at) / Fold change /veh CMKLR1 (11741424_a_at) / RFU LOC101060620 /// MAPK8IP1 (11723275_at) / Fold change /veh LOC101060620 /// MAPK8IP1 (11723275_at) / RFU SPTSSB (11747773_x_at) / Fold change /veh SPTSSB (11747773_x_at) / RFU PRSS12 (11739890_at) / Fold change /veh PRSS12 (11739890_at) / RFU BIN1 (11741810_x_at) / Fold change /veh BIN1 (11741810_x_at) / RFU WNT11 (11732464_a_at) / Fold change /veh WNT11 (11732464_a_at) / RFU C10orf10 (11716521_a_at) / Fold change /veh C10orf10 (11716521_a_at) / RFU C5orf56 (11738089_at) / Fold change /veh C5orf56 (11738089_at) / RFU CYB561 (11721691_x_at) / Fold change /veh CYB561 (11721691_x_at) / RFU ANKRD19P (11752326_a_at) / Fold change /veh ANKRD19P (11752326_a_at) / RFU OR2T12 /// OR2T33 /// OR2T8 (11738714_s_at) / Fold change /veh OR2T12 /// OR2T33 /// OR2T8 (11738714_s_at) / RFU VCAN (11748164_a_at) / Fold change /veh VCAN (11748164_a_at) / RFU JSRP1 (11732532_at) / Fold change /veh JSRP1 (11732532_at) / RFU KRTAP10-11 (11738290_x_at) / Fold change /veh KRTAP10-11 (11738290_x_at) / RFU MYO3A (11730013_a_at) / Fold change /veh MYO3A (11730013_a_at) / RFU EBF3 (11725865_a_at) / Fold change /veh EBF3 (11725865_a_at) / RFU CAMK2N1 (11719241_x_at) / Fold change /veh CAMK2N1 (11719241_x_at) / RFU C5orf56 (11738088_a_at) / Fold change /veh C5orf56 (11738088_a_at) / RFU OLFML3 (11715873_a_at) / Fold change /veh OLFML3 (11715873_a_at) / RFU LOC100653217 /// NTM (11731650_a_at) / Fold change /veh LOC100653217 /// NTM (11731650_a_at) / RFU MAPK11 (11762145_a_at) / Fold change /veh MAPK11 (11762145_a_at) / RFU FIZ1 (11724087_x_at) / Fold change /veh FIZ1 (11724087_x_at) / RFU OASL (11726364_x_at) / Fold change /veh OASL (11726364_x_at) / RFU SOX15 (11748057_x_at) / Fold change /veh SOX15 (11748057_x_at) / RFU CD79A (11719716_a_at) / Fold change /veh CD79A (11719716_a_at) / RFU HIST1H1D (11736915_at) / Fold change /veh HIST1H1D (11736915_at) / RFU CASKIN2 (11723855_a_at) / Fold change /veh CASKIN2 (11723855_a_at) / RFU LOC730098 (11760151_x_at) / Fold change /veh LOC730098 (11760151_x_at) / RFU OR4N2 (11742367_at) / Fold change /veh OR4N2 (11742367_at) / RFU PRRT2 (11749266_a_at) / Fold change /veh PRRT2 (11749266_a_at) / RFU SNX32 (11753110_a_at) / Fold change /veh SNX32 (11753110_a_at) / RFU CDHR5 (11726645_a_at) / Fold change /veh CDHR5 (11726645_a_at) / RFU RCAN1 (11760418_a_at) / Fold change /veh RCAN1 (11760418_a_at) / RFU FAM167A (11723789_a_at) / Fold change /veh FAM167A (11723789_a_at) / RFU FAM26E (11764081_at) / Fold change /veh FAM26E (11764081_at) / RFU ISYNA1 (11749810_s_at) / Fold change /veh ISYNA1 (11749810_s_at) / RFU ACY1 (11761880_at) / Fold change /veh ACY1 (11761880_at) / RFU 11764098_at / Fold change /veh 11764098_at / RFU SAMD14 (11745864_x_at) / Fold change /veh SAMD14 (11745864_x_at) / RFU NPB (11741838_a_at) / Fold change /veh NPB (11741838_a_at) / RFU TMPRSS6 (11731388_a_at) / Fold change /veh TMPRSS6 (11731388_a_at) / RFU KRTAP10-2 (11738614_at) / Fold change /veh KRTAP10-2 (11738614_at) / RFU ARHGAP8 /// PRR5-ARHGAP8 (11727945_x_at) / Fold change /veh ARHGAP8 /// PRR5-ARHGAP8 (11727945_x_at) / RFU KRTAP5-7 /// NADSYN1 (11734609_at) / Fold change /veh KRTAP5-7 /// NADSYN1 (11734609_at) / RFU RASL12 (11751679_a_at) / Fold change /veh RASL12 (11751679_a_at) / RFU CDKN2B (11736163_a_at) / Fold change /veh CDKN2B (11736163_a_at) / RFU PRF1 (11729649_at) / Fold change /veh PRF1 (11729649_at) / RFU, ZNF638 /// ZNF638-IT1 / Fold change vs veh, ZNF638 /// ZNF638-IT1 / RFU, PANK3 / Fold change vs veh, PANK3 / RFU, SH3YL1 / Fold change vs veh, SH3YL1 / RFU, ZEB2 / Fold change vs veh, ZEB2 / RFU, NRIP1 / Fold change vs veh, NRIP1 / RFU, PTTG1IP / Fold change vs veh, PTTG1IP / RFU, CAPN2 / Fold change vs veh, CAPN2 / RFU, MED14 / Fold change vs veh, MED14 / RFU, SNORA58 / Fold change vs veh, SNORA58 / RFU, C1orf63 / Fold change vs veh, C1orf63 / RFU, LRRFIP1 / Fold change vs veh, LRRFIP1 / RFU, NDUFAF7 / Fold change vs veh, NDUFAF7 / RFU, SLC12A2 / Fold change vs veh, SLC12A2 / RFU, IBTK / Fold change vs veh, IBTK / RFU, ESF1 / Fold change vs veh, ESF1 / Fold change vs veh, TMEM50B / RFU, TAOK1 / Fold change vs veh, TAOK1 / RFU, ACBD3 / Fold change vs veh, ACBD3 / RFU, TMA16 / Fold change vs veh, TMA16 / RFU, RWDD3 / Fold change vs veh, RWDD3 / RFU, BCAT1 / Fold change vs veh, BCAT1 / RFU, EDEM3 / Fold change vs veh, EDEM3 / RFU, TMEM33 / Fold change vs veh, TMEM33 / RFU, WDR75 / Fold change vs veh, WDR75 / RFU, AHCTF1 / Fold change vs veh, AHCTF1 / RFU, TFRC / Fold change vs veh, TFRC / RFU, ZDHHC17 / Fold change vs veh, ZDHHC17 / RFU, NOM1 / Fold change vs veh, NOM1 / RFU, ARL8B / Fold change vs veh, ARL8B / RFU, ZBTB11 / Fold change vs veh, ZBTB11 / RFU, TAMM41 / Fold change vs veh, TAMM41 / RFU, KIAA1704 /// LOC100996395 / Fold change vs veh, KIAA1704 /// LOC100996395 / RFU, ING1 / Fold change vs veh, ING1 / RFU, TRMT61B / Fold change vs veh, TRMT61B / RFU, FUBP3 / Fold change vs veh, FUBP3 / RFU, TP53 / Fold change vs veh, TP53 / RFU, TNKS2 / Fold change vs veh, TNKS2 / RFU, ZFP14 / Fold change vs veh, ZFP14 / RFU, ACTR2 / Fold change vs veh, ACTR2 / RFU, PPP3R1 / Fold change vs veh, PPP3R1 / RFU, PIK3R1 / Fold change vs veh, PIK3R1 / RFU, HNRNPA1 / Fold change vs veh, HNRNPA1 / RFU, RNF170 / Fold change vs veh, RNF170 / RFU, ZNF28 / Fold change vs veh, ZNF28 / RFU, RNGTT / Fold change vs veh, RNGTT / RFU, OGT / Fold change vs veh, OGT / RFU, BRD1 / Fold change vs veh, BRD1 / RFU, MARS / Fold change vs veh, MARS / RFU, ZNF655 / Fold change vs veh, ZNF655 / RFU, FAHD1 / Fold change vs veh, FAHD1 / RFU, BDP1 / Fold change vs veh, BDP1 / RFU, LRRCC1 / Fold change vs veh, LRRCC1 / RFU, ARID1A / Fold change vs veh, ARID1A / RFU, ZNF146 / Fold change vs veh, ZNF146 / RFU, ZNF330 / Fold change vs veh, ZNF330 / RFU, GPN3 / Fold change vs veh, GPN3 / RFU, C9orf123 / Fold change vs veh, C9orf123 / RFU, N4BP2L2 / Fold change vs veh, N4BP2L2 / RFU, ARFIP1 / Fold change vs veh, ARFIP1 / RFU, FAM179B / Fold change vs veh, FAM179B / RFU, BCL10 / Fold change vs veh, BCL10 / RFU, UHRF1BP1L / Fold change vs veh, UHRF1BP1L / RFU, BET1 / Fold change vs veh, BET1 / RFU, CNOT2 / Fold change vs veh, CNOT2 / RFU, ZNF268 / Fold change vs veh, ZNF268 / Fold change vs veh, ZNF507 / RFU, DGCR2 / Fold change vs veh, DGCR2 / RFU, WDSUB1 / Fold change vs veh, WDSUB1 / Fold change vs veh, HSP90B1 /// MIR3652 / RFU, ADSS / Fold change vs veh, ADSS / RFU, GK / Fold change vs veh, GK / RFU, ZNF148 / Fold change vs veh, ZNF148 / RFU, TAF9 / Fold change vs veh, TAF9 / RFU, SLC1A5 / Fold change vs veh, SLC1A5 / RFU, SLMO2 / Fold change vs veh, SLMO2 / RFU, ABCC4 / Fold change vs veh, ABCC4 / RFU, LOC101060439 /// RAP1B / Fold change vs veh, LOC101060439 /// RAP1B / RFU, RFX7 / Fold change vs veh, RFX7 / RFU, GTPBP10 / Fold change vs veh, GTPBP10 / RFU, CNEP1R1 / Fold change vs veh, CNEP1R1 / RFU, BIVM-ERCC5 /// ERCC5 / Fold change vs veh, BIVM-ERCC5 /// ERCC5 / RFU, ILF3 / Fold change vs veh, ILF3 / RFU 11762660_at / Fold change /veh 11762660_at / RFU VCAN (11757783_s_at) / Fold change /veh VCAN (11757783_s_at) / RFU DDX43 (11728927_at) / Fold change /veh DDX43 (11728927_at) / RFU KRT8 (11758188_x_at) / Fold change /veh KRT8 (11758188_x_at) / RFU NKD1 (11759106_at) / Fold change /veh NKD1 (11759106_at) / RFU SRD5A1 (11742802_a_at) / Fold change /veh SRD5A1 (11742802_a_at) / RFU TPSAB1 /// TPSB2 (11721975_s_at) / Fold change /veh TPSAB1 /// TPSB2 (11721975_s_at) / RFU GSTM3 (11746129_a_at) / Fold change /veh GSTM3 (11746129_a_at) / RFU IL23R (11737362_x_at) / Fold change /veh IL23R (11737362_x_at) / RFU TMEM51 (11727254_a_at) / Fold change /veh TMEM51 (11727254_a_at) / RFU PIWIL2 (11732686_x_at) / Fold change /veh PIWIL2 (11732686_x_at) / RFU ORM1 (11744905_x_at) / Fold change /veh ORM1 (11744905_x_at) / RFU CCDC152 (11743942_at) / Fold change /veh CCDC152 (11743942_at) / RFU ECM1 (11717891_a_at) / Fold change /veh ECM1 (11717891_a_at) / RFU IL23R (11748794_a_at) / Fold change /veh IL23R (11748794_a_at) / RFU TNFAIP8L3 (11732012_x_at) / Fold change /veh TNFAIP8L3 (11732012_x_at) / RFU MBOAT4 (11741988_at) / Fold change /veh MBOAT4 (11741988_at) / RFU 11764193_at / Fold change /veh 11764193_at / RFU TMEM53 (11763286_at) / Fold change /veh TMEM53 (11763286_at) / RFU MAGEB2 (11727129_at) / Fold change /veh MAGEB2 (11727129_at) / RFU TMEM200A (11744735_a_at) / Fold change /veh TMEM200A (11744735_a_at) / RFU CCDC152 (11751479_a_at) / Fold change /veh CCDC152 (11751479_a_at) / RFU FAM211A (11726209_a_at) / Fold change /veh FAM211A (11726209_a_at) / RFU RGS16 (11746705_a_at) / Fold change /veh RGS16 (11746705_a_at) / RFU VCAN (11755009_s_at) / Fold change /veh VCAN (11755009_s_at) / RFU RHOB (11743442_s_at) / Fold change /veh RHOB (11743442_s_at) / RFU RGS16 (11720943_a_at) / Fold change /veh RGS16 (11720943_a_at) / RFU RGS16 (11720944_at) / Fold change /veh RGS16 (11720944_at) / RFU, VPS4B / Fold change vs veh, VPS4B / RFU, CREB1 / Fold change vs veh, CREB1 / RFU, DNAJC13 / Fold change vs veh, DNAJC13 / RFU, GNAQ / Fold change vs veh, GNAQ / RFU, CDK5R1 / Fold change vs veh, CDK5R1 / RFU, ZRANB3 / Fold change vs veh, ZRANB3 / RFU, CUL4A / Fold change vs veh, CUL4A / RFU, CCNY / Fold change vs veh, CCNY / RFU, UFL1 / Fold change vs veh, UFL1 / RFU, COG3 / Fold change vs veh, COG3 / RFU, DIAPH2 / Fold change vs veh, DIAPH2 / RFU, SKA2 / Fold change vs veh, SKA2 / RFU, AFF3 / Fold change vs veh, AFF3 / RFU, LMF1 / Fold change vs veh, LMF1 / RFU, IPO11 / Fold change vs veh, IPO11 / RFU, DFFB / Fold change vs veh, DFFB / RFU, FOXP1 / Fold change vs veh, FOXP1 / RFU, CARD8 / Fold change vs veh, CARD8 / RFU, STRN3 / Fold change vs veh, STRN3 / RFU, ADK / Fold change vs veh, ADK / RFU, RASSF2 / Fold change vs veh, RASSF2 / RFU, WIPF1 / Fold change vs veh, WIPF1 / RFU, LARP1B / Fold change vs veh, LARP1B / RFU, RASA1 / Fold change vs veh, RASA1 / RFU, RB1 / Fold change vs veh, RB1 / RFU, PPFIA1 / Fold change vs veh, PPFIA1 / RFU, MAT2A / Fold change vs veh, MAT2A / RFU, CCT5 / Fold change vs veh, CCT5 / RFU, WDR92 / Fold change vs veh, WDR92 / RFU, CUX1 / Fold change vs veh, CUX1 / RFU, TTC7A / Fold change vs veh, TTC7A / RFU, TMEM135 / Fold change vs veh, TMEM135 / RFU, DEPTOR / Fold change vs veh, DEPTOR / RFU, CPM / Fold change vs veh, CPM / RFU, DNAJB6 / Fold change vs veh, DNAJB6 / RFU, CACNA2D3 / Fold change vs veh, CACNA2D3 / RFU, DTX4 / Fold change vs veh, DTX4 / RFU, TFCP2 / Fold change vs veh, TFCP2 / RFU, GMCL1 /// GMCL1P1 / Fold change vs veh, GMCL1 /// GMCL1P1 / RFU, AEBP2 / Fold change vs veh, AEBP2 / RFU, SNHG1 /// SNORD22 /// SNORD25 /// SNORD26 /// SNORD27 /// SNORD28 /// SNORD29 /// SNORD31 / Fold change vs veh, SNHG1 /// SNORD22 /// SNORD25 /// SNORD26 /// SNORD27 /// SNORD28 /// SNORD29 /// SNORD31 / Fold change (Aza/veh), C12orf56 (ProbeSet 11735607_a_at) / Fold change (ACY-1035/veh), C12orf56 (ProbeSet 11735607_a_at) / Fold change (Aza/veh), FGFR1OP (ProbeSet 11751329_s_at) / Fold change (ACY-1035/veh), FGFR1OP (ProbeSet 11751329_s_at) / Fold change (Aza/veh), VPS36 (ProbeSet 11739960_a_at) / Fold change (ACY-1035/veh), VPS36 (ProbeSet 11739960_a_at) / RFU SYPL1 (11715823_x_at) / Fold change /veh SYPL1 (11715823_x_at) / RFU IGFBP7 (11715501_s_at) / Fold change /veh IGFBP7 (11715501_s_at) / RFU REEP3 (11722064_at) / Fold change /veh REEP3 (11722064_at) / RFU IGLL1 (11728026_x_at) / Fold change /veh IGLL1 (11728026_x_at): dose or concentration left out as unconfirmed
Details: ProbeSet 11725901_x_at; LIST B

Nc1ncn([C@@H]2O[C@H](CO)[C@@H](O)[C@H]2O)c(=O)n1 [azacitidine]
Fold change vs veh, RWDD3: 0.96
